{"source": "paper PMC7356297", "about": "“Bicyclic Boronates as Potent Inhibitors of AmpC, the Class C β-Lactamase from Escherichia coli” (Biomolecules, 2020)", "key": {"[1]": {"biological_target": "T1, AmpC from Escherichia coli (AmpCEC) (Escherichia coli, UniProt P00811)", "T1 construct": "made in house; host or cells: E. coli W3110 (pAD7 vector)", "T1 sequence (P00811 20-377)": "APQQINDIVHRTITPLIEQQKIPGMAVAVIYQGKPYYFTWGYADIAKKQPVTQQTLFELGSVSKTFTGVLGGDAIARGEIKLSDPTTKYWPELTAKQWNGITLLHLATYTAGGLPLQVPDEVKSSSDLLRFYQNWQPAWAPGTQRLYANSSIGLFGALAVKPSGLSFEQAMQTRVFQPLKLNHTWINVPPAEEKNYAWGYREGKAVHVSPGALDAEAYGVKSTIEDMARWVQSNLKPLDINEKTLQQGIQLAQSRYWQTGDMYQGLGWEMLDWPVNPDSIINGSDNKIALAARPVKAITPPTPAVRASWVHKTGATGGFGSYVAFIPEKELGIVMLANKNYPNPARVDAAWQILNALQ", "experiment": "Steady-state competition kinetics of AmpCEC (100 nM) with fluorescent substrate FC-5 (Kiapp, k2/K)", "assay_type": "biochemical", "conditions": "for Ki: Kiapp, apparent inhibition constant corrected with KM of FC-5; for kinact/KI: pH 7.5, read-out: k2/K, 100 nM AmpCEC, 5 µM FC-5", "experimental": "(§1) All kinetic measurements were carried out in competition assays using the fluorescent substrate FC-5 [36] under steady-state conditions monitoring hydrolysis, in 100 mM phosphate buffer pH 7.5 supplemented with 0.01% (v/v) Triton X-100 (Assay Buffer). Fluorescence was measured using a PHERAstarFS (BMG Labtech, Aylesbury, United Kingdom) plate-reader, recording emission spectra at λex = 380 nm and λem = 460 nm. IC50s were determined after 10 min incubation time of 500 pM AmpCEC with varying concentrations of inhibitors and assayed using 5 µM FC-5. Nonlinear regression analyses were carried out using GraphPad Prism V. 5.04 (GraphPad Software, San Diego, CA, USA).\nAs described for avibactam inhibition, the kinetics of bicyclic boronate inhibition of β-lactamases can be described assuming a two-step, reversible inhibition model:(1) E+I → k1 ←k−1 E:I → k2 ←k−2 E−I with E: enzyme; I: inhibitor; k1: association rate constant; k−1: dissociation rate constant; k2: binding rate constant, and k−2: recyclization rate constant.\nTo obtain the pseudo first-order rate constant kobs and the apparent inhibition constant Kiapp, the rate of FC-5 (5 µM) hydrolysis by AmpCEC (100 nM) was measured in the presence of varying concentrations of the inhibitor.\nPlotting the resultant kobs values against the inhibitor concentration [I] (Figure S1b) and fitting to Equation (3) gives the apparent second-order rate constant (k2/K’) (3) kobs=k2+k2/K^′∗ I with K’ representing the equilibrium coefficient of AmpCEC inhibition in the presence of FC-5 in the set concentration of 5 µM.\nThis can then be corrected using the Michaelis constant (KM) of FC-5 for AmpCEC and the FC-5 concentration [S] according to Equation (4) to give the second-order rate constant (k2/K):(4) k2/K=k2/K^′∗ S/KM+1\nThe same data were used to determine the apparent inhibition constant Kiapp. The reciprocals of the initial rates were plotted against inhibitor concentration (Figure S1a), giving a straight line for which the value of the intercept divided by the slope gives Kiapp’. From this, Kiapp can be obtained after correction with the KM for FC-5 according to Equation (5):(5) Kiapp=Kiapp’/1+S/KM"}, "[2]": {"biological_target": "T1, AmpC from Escherichia coli (AmpCEC)", "assay_type": "biochemical", "conditions": "half-life of the enzyme-inhibitor complex, ln2/koff", "experimental": "as §1\nOff rates (k-2 or koff) were measured using the jump-dilution method (Figure S1c). AmpCEC (1 µM) was incubated with the respective inhibitor (10 µM for TAN, CB2 and CB3, and 100 µM for VAB) for 30 min at room temperature, then diluted 100,000 fold in the Assay Buffer (final enzyme concentration: 10 pM) and immediately assayed with 25 µM FC-5. The data were fitted to Equation (2) with V0 in this case representing the velocity of the no-enzyme control and VS representing the initial velocity of uninhibited enzyme.\nThe half-life of the enzyme-inhibitor complex t1/2 is given by Equation (6):(6) t1/2=ln2/koff"}, "[3]": {"biological_target": "T1, AmpC from Escherichia coli (AmpCEC)", "experiment": "IC50 determination, 500 pM AmpCEC, 5 µM FC-5, 10 min pre-incubation", "assay_type": "biochemical", "conditions": "pIC50, 500 pM AmpCEC, 5 µM FC-5, 10 min inhibitor pre-incubation at room temperature", "experimental": "as §1"}, "[4]": {"system": "DH5α E. coli containing the pAD7-AmpCEC plasmid", "experiment": "Broth microdilution MIC of ceftazidime alone or with inhibitor, AmpCEC producing strain", "assay_type": "cell-based, Escherichia coli", "experimental": "(§2) Minimum inhibitory concentrations (MICs) were determined by broth microdilution in triplicate and interpreted using published Clinical and Laboratory Standards Institute (CLSI) guidelines.\n(§3) Ceftazidime (CAZ) was tested alone (0.25–256 μg mL^−1) against DH5α Escherichia coli and DH5α E. coli containing the pAD7-AmpCEC plasmid and in combination with CB2, CB3, TAN, and VAB (all tested at a fixed concentration of 4 μg mL^−1) using the DH5α E. coli strain containing the pAD7-AmpCEC plasmid."}, "DH5α Escherichia coli": {"system": "DH5α Escherichia coli", "experiment": "Broth microdilution MIC of ceftazidime, strain without plasmid", "assay_type": "cell-based", "conditions": "read-out: Minimum Inhibitory Concentration Ceftazidime", "experimental": "as §2, §3"}}, "note": "Where “and” joins values, the source holds several entries; their conditions need not be identical. Equal entries are not always repeated.", "data": [{"compound": "O=C(O)C[C@@H]1CC[C@H](NC(=O)Cc2cccs2)B(O)O1", "note": "[VAB, vaborbactam]", "values": [{"measurement": "k2/K", "setting": "[1]; 100 nM AmpCEC, 5 µM FC-5, second-order rate constant", "value": "6.55 ± 0.46", "unit": "M^−1 s^−1 × 10^3"}, {"measurement": "Ki", "setting": "[1]; 100 nM AmpCEC, 5 µM FC-5", "value": "19 µM and 19.1 µM"}, {"measurement": "kinact/KI", "setting": "[1]; second-order rate constant", "value": "~7000", "unit": "M⁻¹ s⁻¹"}, {"measurement": "t1/2", "setting": "[2]", "value": "16.8 ± 0.7", "unit": "min"}, {"measurement": "IC50", "setting": "[3]", "value": "501 nM and 479 nM"}]}, {"compound": "O=C(O)c1cccc2c1OB(O)C(SCc1ccccc1)C2", "note": "(centres unmarked) [CB3]", "values": [{"measurement": "Minimum Inhibitory Concentration Ceftazidime (CAZ + inhibitor)", "setting": "[4]; CAZ in combination with the inhibitor at a fixed concentration of 4 µg mL^−1, DH5α pAD7 AmpCEC", "value": 4, "unit": "µg/mL"}, {"measurement": "Ki", "setting": "[1]; 100 nM AmpCEC, 5 µM FC-5", "value": "1 µM and 1.16 µM"}, {"measurement": "kinact/KI", "setting": "[1]; second-order rate constant", "value": "224000 ± 21000", "unit": "M⁻¹ s⁻¹"}, {"measurement": "t1/2", "setting": "[2]", "value": "0.55 ± 0.34", "unit": "min"}, {"measurement": "IC50", "setting": "[3]", "value": 29.5, "unit": "nM"}]}, {"compound": "NCCN[C@H]1CC[C@H](CC(=O)N[C@H]2Cc3cccc(C(=O)O)c3OB2O)CC1", "note": "[TAN, taniborbactam]", "values": [{"measurement": "Ki", "setting": "[1]; 100 nM AmpCEC, 5 µM FC-5", "value": "4 µM and 3.73 µM"}, {"measurement": "kinact/KI", "setting": "[1]; second-order rate constant", "value": "85600 ± 9200", "unit": "M⁻¹ s⁻¹"}, {"measurement": "t1/2", "setting": "[2]", "value": "4.55 ± 0.91", "unit": "min"}, {"measurement": "IC50", "setting": "[3]", "value": 29.5, "unit": "nM"}]}, {"compound": "NCc1ccc(C(=O)N[C@H]2Cc3cccc(C(=O)O)c3OB2O)cc1", "note": "[CB2]", "values": [{"measurement": "Ki", "setting": "[1]; 100 nM AmpCEC, 5 µM FC-5", "value": "3 µM and 3.26 µM"}, {"measurement": "kinact/KI", "setting": "[1]; second-order rate constant", "value": "81000 ± 6400", "unit": "M⁻¹ s⁻¹"}, {"measurement": "t1/2", "setting": "[2]", "value": "4.18 ± 0.41", "unit": "min"}, {"measurement": "IC50", "setting": "[3]", "value": "31.6 nM and 32.4 nM"}]}, {"compound": "CC(C)(O/N=C(\\C(=O)N[C@@H]1C(=O)N2C(C(=O)[O-])=C(C[n+]3ccccc3)CS[C@H]12)c1csc(N)n1)C(=O)O", "note": "[CAZ, Ceftazidime]", "values": [{"measurement": "MIC", "setting": "DH5α Escherichia coli", "value": 1, "unit": "µg/mL"}, {"measurement": "MIC", "setting": "[4]; Escherichia coli, read-out: Minimum Inhibitory Concentration Ceftazidime", "value": 256, "unit": "µg/mL"}]}]}
